In one series the test system is PTEN mRNA. As to the kind of experiment: PTEN mRNA knockdown in vitro (quantification of PTEN mRNA by PCR). The class given is cell-based, human. The following applies: SH-SY5Y cells; PTEN ASO lipid particles of Table 3, ASO 500 nmol/L, exposure 24 hours; PTEN mRNA by ΔΔCt method. The source says:
An antisense oligonucleotide nucleic acid (PTEN ASO) for a PTEN protein was purchased from Hokkaido System Science Co., Ltd. PTEN ASO is an oligonucleotide consisting of 20 bases, in which nucleotides are connected by a phosphodiester bond, and the sequence of which is described below.
In an in vitro test using SH-SY5Y cells (American Type Culture Collection), E-MEM (gibco), Ham's F12 (gibco), FBS (gibco), Penicillin-streptomycin (gibco), and NEAA (FUJIFILM Wako Pure Chemical Corporation) were mixed at a ratio of 41.5:41.5:15:1:1 and the mixture was used as a culture medium.
The measurement of PTEN protein mRNA was performed according to the protocol of TaqMan (register trademark) Fast Advanced Cells-to-CT™ Kit (Thermo Fisher Scientific). To A431 cells or SH-SY5Y cells, a dispersion liquid of nucleic acid lipid particles prepared to have a final concentration of 500 nmol/L as an ASO concentration, Naked ASO or PBS was added. After exposure for 24 hours under the control of 37° C. and 5% CO2, the culture supernatant was removed, and the mixture was washed once with PBS at 4° C. After removing the PBS, a lysis solution was added at 50 μL/well, and the mixture was stood still for 5 minutes at room temperature to obtain a cell lysate. For the cell lysate, TaqMan (register trademark) Fast Advanced Cells-to-CT™ Kit (Thermo Fisher scientific), and Hs02621230_s1, FAM/MGB (Thermo Fisher Scientific) and Human GAPDH Endogenous Control (VIC (register trademark)/MGB, Thermo Fisher Scientific) as a PCR reaction reagent were used to perform reverse transcription and PCR reaction.
The PTEN mRNA level of each sample was calculated by the ΔΔCt method. Specifically, the Ct value of GAPDH is subtracted from the Ct value of PTEN to calculate the ΔCt value of each sample. The average value of the ΔCt values of the PBS treatment group was subtracted from the calculated ΔCt value to calculate the ΔΔCt value. For each ΔΔCt value, a relative value with respect to the Naked ASO to be compared was taken as a PTEN mRNA relative value.

A short description of series [1]: Particle size of FLuc mRNA-encapsulating lipid particles. The class given is physicochemical. The protocol: (§1) The compounds described in Table 2, the neutral lipid, cholesterol (product name: Cholesterol HP; NTPPON FINE CHEMICAL CO., LTD.), and 1,2-dimyristoyl-rac-glycero-3-(methylpolyoxyethylene 2000) (hereinafter, called DMG-PEG2000) were dissolved in ethanol at a molar ratio in Table 2 such that the total lipid concentration became 20 mmol/L, thereby obtaining an oil phase.
(§2) As the neutral lipid, 1,2-distearoyl-sn-glycero-3-phosphocholine (product name: COATSOME® MC-8080; NOF corporation) was used in a case of Comparative Example 1, and L-α-dioleoylphosphatidylethanolamine (product name: COATSOME® MC-8181; NOF corporation) was used in a case other than Comparative Example 1.
(§3) FLuc mRNA (product name: CleanCap FLuc mRNA (5 moU); TriLink) was diluted with 50 mmol/L citrate buffer having a pH 4 such that the weight ratio of total lipid concentration to mRNA concentration is about 19:1 to 64:1, obtaining a water phase. Then, the water phase and the oil phase were mixed together using NanoAssemblr (Precision NanoSystems) such that the volume ratio of water phase:oil phase was 3:1, and the mixed solution was 1.5-fold diluted with phosphate buffered saline (PBS), thereby obtaining a dispersion liquid of mRNA lipid particles. The dispersion liquid was dialyzed with a 10% aqueous sucrose solution using a dialysis cassette (Slide-A-Lyzer G2, MWCO: 10 kD, Thermo Fisher Scientific) to remove ethanol, thereby obtaining FLuc mRNA-encapsulating lipid particles.
The particle size of the mRNA-encapsulating lipid particles was measured by 10-fold diluting the dispersion liquid of lipid particle with phosphate buffered saline (PBS) using Zeta-potential & Particle size Analyzer ELS-Z2 (Otsuka Electronics Co., Ltd.).

The subject of the next series is FLuc mRNA. As to the kind of experiment: mRNA encapsulation rate of FLuc mRNA-encapsulating lipid particles. The class given is physicochemical. The protocol: as §1, §2, §3
15 to 30 μL of a 3 mol/L aqueous sodium acetate solution and 4.5 to 9 μL of glycogen were added to 30 to 60 μL of the lipid particles retaining mRNA, and 0.75 to 1.5 mL of ethanol was added thereto, so that only the nucleic acids were precipitated while the lipid was dissolved. Then, the supernatant was removed by centrifugation. The precipitates were air-dried for 15 minutes or longer, then water was added thereto to redissolve the precipitates, and the concentration thereof was measured using Nanodrop NF1000 (Thermo Fisher Scientific), thereby quantifying the total mRNA concentration.
The mRNA concentration was quantified using a Quant-iT RiboGreen RNA Assay Kit (Thermo Fisher Scientific) according to the protocol. First, a 20×TE buffer included in the above-described kit was diluted with water, thereby obtaining a 1×TE buffer. TE represents Tris/EDTA (ethylenediaminetetraacetic acid). In order to quantify only mRNA in the outer water phase, the dispersion liquid of lipid particles retaining mRNA was 10,000-fold diluted with the 1×TE buffer. 100 μL of the 10,000-fold diluted dispersion liquid of lipid particles was put into a 96-well plate, then 100 μL of a RiboGreen reagent (reagent included in the Quanti-iT Ribogreen RNA Assay Kit described above) 2,000-fold diluted with the 1×TE buffer was added to a sample, and fluorescence (excitation wavelength: 485 nm, fluorescence wavelength: 535 nm) was measured using a plate reader Infinite F200 (TECAN), thereby quantifying the mRNA concentration in the outer water phase.
By using the quantification results of the total mRNA concentration and the mRNA concentration in the outer water phase that were obtained through the above steps, the mRNA encapsulation rate of the mRNA lipid particles was calculated according to the following Equation.
mRNA encapsulation rate (%)=(total mRNA concentration-mRNA concentration in outer water phase)/total mRNA concentration×100

The mark [2] stands for this setting: aminolipid 45 / DOPE 10 / cholesterol 43.5 / DMG-PEG2000 1.5 mol %, lipid/nucleic acid 32 wt/wt.
Where [3] appears, read: aminolipid 40 / DOPE 10 / cholesterol 48.5 / DMG-PEG2000 1.5 mol %, lipid/nucleic acid 64 wt/wt.
Setting [4] is: aminolipid 50 / DOPE 10 / cholesterol 38.5 / DMG-PEG2000 1.5 mol %, lipid/nucleic acid 64 wt/wt.

This is an account of results in patent US20240124389A1, “COMPOUND OR SALT THEREOF, LIPID PARTICLES, AND PHARMACEUTICAL COMPOSITION” (FUJIFILM Corporation, priority 2021, published 2024).

As for `CCCCCCC(CCCC)COC(=O)CCCC(CCCCCC)OC(=O)OCCN(CCOC(=O)OC(CCCCCC)CCCC(=O)OCC(CCCC)CCCCCC)CCN(CC)CC` (stereo not drawn) [Example 8, Bis(2-butyloctyl) 11-(2-(diethylamino)ethyl)-5,17-dihexyl-7,15-dioxo-6,8,14,16-tetraoxa-11-azahenicosanedioate], the “PTEN knockdown relative value with respect to Naked ASO” value (shortened to “PTEN knockdown relative value”) with PTEN mRNA is given as 0.65.
In series [1] (setting [2]), `CCCCCCC(CCCC(=O)OCC(CCCCC)CCCCC)OC(=O)OCCN(CCCN(CC)CC)CCOC(=O)OC(CCCCCC)CCCC(=O)OCC(CCCCC)CCCCC` (stereo not drawn) [Example 13, Bis(2-pentylheptyl) 11-(3-(diethylamino)propyl)-5,17-dihexyl-7,15-dioxo-6,8,14,16-tetraoxa-11-azahenicosanedio ate] gave a Particle size of 83.4 nm. Also, the “Nucleic acid encapsulation rate” value in the series with FLuc mRNA (setting [2]) amounted to 99.1%. Besides, the “PTEN knockdown relative value” value in the series with PTEN mRNA turned out to be 0.34.
The matching figures for `CCCCCC(CCCCC)COC(=O)CCCC(CCC)OC(=O)OCCN(CCOC(=O)OC(CCC)CCCC(=O)OCC(CCCCC)CCCCC)CCN(CC)CC` (stereo not drawn) [Example 21, Bis(2-pentylheptyl) 11-(2-(diethylamino)ethyl)-7,15-dioxo-5,17-dipropyl-6,8,14,16-tetraoxa-11-azahenicosanedioate]: 100.9 nm, 98.4% and 0.33.
As for `CCCCCCCOC(=O)CCCC(CCCC(=O)OCCCCCCC)OC(=O)OCCN(CCOC(=O)OC(CCCC(=O)OCCCCCCC)CCCC(=O)OCCCCCCC)CCN(CC)CC` [Example 29, diheptyl 11-(2-(diethylamino)ethyl)-5,17-bis(4-(heptyloxy)-4-oxobutyl)-7,15-dioxo-6,8,14,16-tetraoxa-11-azahenicosanedioate], the Particle size in series [1] (setting [3]) is reported as 104.8 nm; in series [1] (setting [2]), 129 nm; in series [1] (setting [4]), 95.1 nm. Further, the “Nucleic acid encapsulation rate” value was determined as 100.0% in the series on FLuc mRNA (setting [3]), 95.0% in the series on FLuc mRNA (setting [2]) and 100.0% in the series with FLuc mRNA (setting [4]). Further, the “PTEN knockdown relative value” value in the series with PTEN mRNA is 0.80.
In the case of `CCCCCCCOC(=O)CCCC(CCCC(=O)OCCCCCCC)OC(=O)OCCN(CCOC(=O)OC(CCCC(=O)OCCCCCC)CCCC(=O)OCCCCCC)CCN(CC)CC` [Example 37, 1-Heptyl 21-hexyl 11-(2-(diethylamino)ethyl)-5-(4-(heptyloxy)-4-oxobutyl)-17-(4-(hexyloxy)-4-oxobutyl)-7,15-d ioxo-6,8,14,16-tetraoxa-11-azahenicosanedioate], the “PTEN knockdown relative value” value in the series with PTEN mRNA is on record as 0.83.
